One may read the TGI as the concentration at which net growth stops.

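Protocol summary: plate cells (96-well), add compound at 5 concentrations, incubate 48 h, interpolate endpoints linearly. TGI is the concentration that stops growth completely.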

The source of these data is PubChem BioAssay (NCI).

Some test systems named below: ACHN renal; CCRF-CEM leukemia; EKVX NSCLC; NCI-H226 lung; OVCAR-5 ovarian; RPMI-8226 leukemia; SF-539 CNS; SK-MEL-2 melanoma; SK-MEL-5 melanoma; SNB-19 CNS; U251 CNS; A498 renal; M14 melanoma; UACC-257 melanoma; DU-145 prostate; HS 578T breast; MDA-MB-231 breast; MDA-MB-435; MDA-N; BT-549 breast.
What all share (assay): DTP human tumour cell line panel, 48 h

Take `Cc1ccc(C(c2c(O)c3ccccc3n(-c3ccccc3)c2=O)c2c(O)c3ccccc3n(-c3ccccc3)c2=O)cc1`: the TGI in the experiment on ACHN renal, in the experiment with CCRF-CEM leukemia, in the experiment on EKVX NSCLC, with NCI-H226 lung, in the experiment with OVCAR-5 ovarian and in the experiment on RPMI-8226 leukemia was more than 100 µM each time. Also, the TGI in the experiment on SF-539 CNS, in the experiment on SK-MEL-2 melanoma, in the experiment with SK-MEL-5 melanoma, in the experiment with SNB-19 CNS and in the experiment on U251 CNS was more than 100 µM throughout.
Turning to `NC(=O)/C(=N\NC(=O)C[n+]1ccccc1)C1NC(=O)NC1=O` (stereo not drawn), the TGI with A498 renal, with ACHN renal, in the experiment with CCRF-CEM leukemia, with EKVX NSCLC, with M14 melanoma and in the experiment on NCI-H226 lung was more than 100 µM each time. Besides, the TGI in the experiment on OVCAR-5 ovarian, in the experiment on RPMI-8226 leukemia, in the experiment on SF-539 CNS, in the experiment on SK-MEL-2 melanoma, with SK-MEL-5 melanoma and with SNB-19 CNS was more than 100 µM each time. In the experiment with UACC-257 melanoma, the TGI is more than 100 µM.
For `O=C1CC2(CCC3=C(O2)c2ccccc2NC(=O)C3)C(=O)c2ccccc2N1` (stereo not drawn), the TGI in the experiment on ACHN renal, in the experiment on CCRF-CEM leukemia, in the experiment on EKVX NSCLC, with M14 melanoma, with NCI-H226 lung and in the experiment with OVCAR-5 ovarian was more than 100 µM each time. Also, the TGI with RPMI-8226 leukemia, in the experiment on SF-539 CNS, in the experiment on SK-MEL-2 melanoma, in the experiment on SK-MEL-5 melanoma, in the experiment with SNB-19 CNS and in the experiment on U251 CNS was more than 100 µM in each case.
For `COC(=O)C(C)(C)[C@@H]1OC(=O)N(S(=O)(=O)c2c(C)cc(C)cc2C)[C@H]1C(C)C`, the TGI in the experiment with ACHN renal, with CCRF-CEM leukemia, in the experiment on DU-145 prostate, in the experiment on EKVX NSCLC, in the experiment with HS 578T breast and in the experiment on M14 melanoma was more than 100 µM each time. The TGI in the experiment with MDA-MB-231 breast, in the experiment on MDA-MB-435, in the experiment on MDA-N, in the experiment on NCI-H226 lung, in the experiment on OVCAR-5 ovarian and in the experiment on RPMI-8226 leukemia was more than 100 µM in each case. Moreover, the TGI in the experiment with SF-539 CNS, with SK-MEL-2 melanoma, in the experiment with SK-MEL-5 melanoma, in the experiment on SNB-19 CNS, in the experiment on U251 CNS and in the experiment with UACC-257 melanoma was more than 100 µM throughout.
With `O=c1c2ccccc2nc2n1-c1ccccc1SC2`, the TGI with A498 renal, in the experiment on ACHN renal, in the experiment on CCRF-CEM leukemia, with EKVX NSCLC, in the experiment with M14 melanoma and in the experiment on OVCAR-5 ovarian was more than 100 µM throughout. The TGI in the experiment on RPMI-8226 leukemia is 71.9 µM; in the experiment on SF-539 CNS it was more than 100 µM; in the experiment on SK-MEL-2 melanoma, more than 100 µM; in the experiment on SK-MEL-5 melanoma, 86.9 µM; in the experiment with SNB-19 CNS it was more than 100 µM; with U251 CNS, more than 100 µM. For the same compound, the TGI in the experiment on UACC-257 melanoma is more than 100 µM.
Regarding `O=C1C=CC2(C=C1)CCNC1=C2C(=O)c2ccccc2C1=O`, the TGI with A498 renal, with ACHN renal, in the experiment with CCRF-CEM leukemia, in the experiment with EKVX NSCLC, in the experiment with M14 melanoma and in the experiment on NCI-H226 lung was more than 100 µM in each case. Also, the total growth inhibition concentration (TGI) in the experiment with OVCAR-5 ovarian, in the experiment with RPMI-8226 leukemia, with SF-539 CNS, with SK-MEL-2 melanoma, in the experiment on SK-MEL-5 melanoma and in the experiment with U251 CNS was more than 100 µM in each case. In addition, the TGI in the experiment on UACC-257 melanoma was more than 100 µM.
Consider `CN(C)CCNC(=O)c1cccc2c(NC(CS)C(=O)O)c3ccccc3[n+](C)c12` (stereo not drawn), for which the TGI in the experiment on A498 renal is more than 100 µM; in the experiment with ACHN renal it was more than 100 µM; in the experiment on BT-549 breast, 98.2 µM; in the experiment on DU-145 prostate, more than 100 µM; in the experiment on EKVX NSCLC it was more than 100 µM; in the experiment on HS 578T breast it was more than 100 µM. The TGI with M14 melanoma, in the experiment with MDA-MB-231 breast, in the experiment on MDA-MB-435, in the experiment with OVCAR-5 ovarian, with RPMI-8226 leukemia and in the experiment on SF-539 CNS was more than 100 µM in each case. The TGI with SK-MEL-2 melanoma, with SK-MEL-5 melanoma, with SNB-19 CNS, with U251 CNS and in the experiment with UACC-257 melanoma was more than 100 µM throughout.
In the case of `O=C1NC(=O)C(C(=O)C(=O)Nc2ccc(Cl)cc2Cl)C(=O)N1`, the TGI in the experiment with A498 renal, with ACHN renal, in the experiment on CCRF-CEM leukemia, with EKVX NSCLC, in the experiment on M14 melanoma and with OVCAR-5 ovarian was more than 100 µM throughout. Moreover, the TGI in the experiment with RPMI-8226 leukemia, with SK-MEL-2 melanoma, in the experiment with SK-MEL-5 melanoma, in the experiment on SNB-19 CNS, in the experiment with U251 CNS and in the experiment on UACC-257 melanoma was more than 100 µM throughout.
Take `OCCCNc1ccnc2cc(Cl)ccc12`: the TGI in the experiment with A498 renal, in the experiment on ACHN renal, with CCRF-CEM leukemia, with EKVX NSCLC, in the experiment on M14 melanoma and with NCI-H226 lung was more than 100 µM throughout. Moreover, the TGI in the experiment with OVCAR-5 ovarian, with RPMI-8226 leukemia, in the experiment on SF-539 CNS, in the experiment on SK-MEL-2 melanoma, with SK-MEL-5 melanoma and in the experiment with SNB-19 CNS was more than 100 µM throughout. Moreover, the TGI with U251 CNS and with UACC-257 melanoma was more than 100 µM in each case.
